US20250282794A1 (CURADEV PHARMA LTD, priority 2022, published 2025)
pIC50: −log10 of the molar value.

target: recombinant full length HPK-1 enzyme (Homo sapiens (Human), UniProt Q92918); experiment: HPK-1 biochemical enzyme assay (ADP-Glo kinase inhibition); conditions: recombinant full length HPK-1 6.8 nM, 10 μM ATP, 12.5 μM MBP, 30 mins at 25° C.
How it was run: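 ADP-Glo readout of ADP formed after a 30 min, 25° C. reaction of 6.8 nM full-length HPK-1 with swine myelin basic protein (12.5 μM) and ATP (10 μM) in Tris pH 7.4 buffer with MgCl2, DTT and BSA. Ten compound concentrations tested; percent inhibition set against vehicle (0%) and no-enzyme (100%) controls gave IC50.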

Chain of recombinant full length HPK-1 enzyme (Q92918 whole entry, species assumed): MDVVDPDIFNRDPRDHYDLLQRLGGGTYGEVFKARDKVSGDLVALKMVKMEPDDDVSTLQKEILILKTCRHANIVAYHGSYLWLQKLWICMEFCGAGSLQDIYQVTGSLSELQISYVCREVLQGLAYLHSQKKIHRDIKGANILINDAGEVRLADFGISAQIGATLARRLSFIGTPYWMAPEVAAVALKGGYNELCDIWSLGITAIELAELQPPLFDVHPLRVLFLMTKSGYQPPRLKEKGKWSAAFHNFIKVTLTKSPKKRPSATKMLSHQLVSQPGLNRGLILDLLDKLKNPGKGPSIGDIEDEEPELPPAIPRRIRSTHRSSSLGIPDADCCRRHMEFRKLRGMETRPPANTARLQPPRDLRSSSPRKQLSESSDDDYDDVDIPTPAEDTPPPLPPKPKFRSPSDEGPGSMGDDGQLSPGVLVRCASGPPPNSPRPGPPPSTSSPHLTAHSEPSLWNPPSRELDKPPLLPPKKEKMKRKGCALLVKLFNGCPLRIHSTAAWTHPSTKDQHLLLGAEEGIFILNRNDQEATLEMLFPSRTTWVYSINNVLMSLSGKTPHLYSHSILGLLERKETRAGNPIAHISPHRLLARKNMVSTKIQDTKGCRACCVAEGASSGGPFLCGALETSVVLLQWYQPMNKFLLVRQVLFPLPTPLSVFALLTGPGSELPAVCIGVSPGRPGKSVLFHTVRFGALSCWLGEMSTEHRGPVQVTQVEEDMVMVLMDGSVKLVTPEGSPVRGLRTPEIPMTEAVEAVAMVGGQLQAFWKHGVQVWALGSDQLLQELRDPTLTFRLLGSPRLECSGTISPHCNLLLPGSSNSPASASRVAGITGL

Row | SMILES | pIC50
1 | Cc1c(Nc2cc[nH]c(=O)c2C(=O)Nc2ccc(N3CCN(C(C)c4ccn[nH]4)CC3)cc2)cnc2c1NCCO2 (centres unmarked) [Example 378, N-(4-(4-(1-(1H-pyrazol-5-yl)ethyl)piperazin-1-yl)phenyl)-4-((8-methyl-2,3-dihydro-1H-pyrido[2,3-b][1,4]oxazin-7-yl)amino)-2-oxo-1,2-dihydropyridine-3-carboxamide] | ≥ 8.00
2 | Cc1c(Nc2cc[nH]c(=O)c2C(=O)Nc2ccc(N3CCN(C4COC4)CC3)c(F)c2)cnc2c1NCCO2 [Example 379, N-(3-fluoro-4-(4-(oxetan-3-yl)piperazin-1-yl)phenyl)-4-((8-methyl-2,3-dihydro-1H-pyrido[2,3-b][1,4]oxazin-7-yl)amino)-2-oxo-1,2-dihydropyridine-3-carboxamide] | ≥ 8.00
3 | Cc1c(Nc2cc[nH]c(=O)c2C(=O)Nc2ccc(N3CCN(C4(C)COC4)CC3)cc2)cnc2c1NCCO2 [Example 380, 4-((8-methyl-2,3-dihydro-1H-pyrido[2,3-b][1,4]oxazin-7-yl)amino)-N-(4-(4-(3-methyloxetan-3-yl)piperazin-1-yl)phenyl)-2-oxo-1,2-dihydropyridine-3-carboxamide] | 7.00 to 8.00
4 | Cc1c(Nc2cc[nH]c(=O)c2C(=O)Nc2ccc(N3CCC(N(C)C(=O)C(C)C)C3)cc2)cnc2c1NCCO2 (centres unmarked) [Example 381, 4-((8-methyl-2,3-dihydro-1H-pyrido[2,3-b][1,4]oxazin-7-yl)amino)-N-(4-(3-(N-methylisobutyramido)pyrrolidin-1-yl)phenyl)-2-oxo-1,2-dihydropyridine-3-carboxamide] | 7.00 to 8.00
5 | Cc1c(Nc2cc[nH]c(=O)c2C(=O)Nc2ccc(N3CCC4(CC3)CC4)cc2)cnc2c1NCCO2 [Example 382, N-(4-(6-azaspiro[2.5]octan-6-yl)phenyl)-4-((8-methyl-2,3-dihydro-1H-pyrido[2,3-b][1,4]oxazin-7-yl)amino)-2-oxo-1,2-dihydropyridine-3-carboxamide] | 7.00 to 8.00
6 | Cc1c(Nc2cc[nH]c(=O)c2C(=O)Nc2ccc(N3CCN(C(C)(C)C)CC3)cc2)cnc2c1NCCO2 [Example 383, N-(4-(4-(tert-butyl)piperazin-1-yl)phenyl)-4-((8-methyl-2,3-dihydro-1H-pyrido[2,3-b][1,4]oxazin-7-yl)amino)-2-oxo-1,2-dihydropyridine-3-carboxamide] | ≥ 8.00
7 | Cc1c(Nc2cc[nH]c(=O)c2C(=O)Nc2ccc(C3CCN(C(C)C)CC3)cc2)cnc2c1NCC(C)O2 (centres unmarked) [Example 384, 4-((3,8-dimethyl-2,3-dihydro-1H-pyrido[2,3-b][1,4]oxazin-7-yl)amino)-N-(4-(1-isopropylpiperidin-4-yl)phenyl)-2-oxo-1,2-dihydropyridine-3-carboxamide] | 7.00 to 8.00
8 | CCN1CCN(c2ccc(NC(=O)c3c(Nc4cnc5c(c4C)NCC(C)O5)cc[nH]c3=O)cc2F)CC1 (centres unmarked) [Example 385, 4-((3,8-dimethyl-2,3-dihydro-1H-pyrido[2,3-b][1,4]oxazin-7-yl)amino)-N-(4-(4-ethylpiperazin-1-yl)-3-fluorophenyl)-2-oxo-1,2-dihydropyridine-3-carboxamide] | 7.00 to 8.00
9 | CCN1CCN(c2ccc(NC(=O)c3c(Nc4cnc5c(c4C)NCC(C)O5)cc[nH]c3=O)cc2F)CC1 (centres unmarked) [Example 386, 4-((3,8-dimethyl-2,3-dihydro-1H-pyrido[2,3-b][1,4]oxazin-7-yl)amino)-N-(4-(4-ethylpiperazin-1-yl)-3-fluorophenyl)-2-oxo-1,2-dihydropyridine-3-carboxamide] | ≥ 8.00
10 | Cc1c(Nc2cc[nH]c(=O)c2C(=O)Nc2ccc(N3CCN(CCF)CC3)c(F)c2)cnc2c1NCCO2 [Example 387, N-(3-fluoro-4-(4-(2-fluoroethyl)piperazin-1-yl)phenyl)-4-((8-methyl-2,3-dihydro-1H-pyrido[2,3-b][1,4]oxazin-7-yl)amino)-2-oxo-1,2-dihydropyridine-3-carboxamide] | 7.00 to 8.00
11 | CCN1CCN(c2c(F)cc(NC(=O)c3c(Nc4cnc5c(c4C)NCCO5)cc[nH]c3=O)cc2Cl)CC1 [Example 389, N-(3-Chloro-4-(4-ethylpiperazin-1-yl)-5-fluorophenyl)-4-((8-methyl-2,3-dihydro-1H-pyrido[2,3-b][1,4]oxazin-7-yl)amino)-2-oxo-1,2-dihydropyridine-3-carboxamide] | ≥ 8.00
12 | CCN1CCN(c2c(F)cc(NC(=O)c3c(Nc4cnc5c(c4C)NCCO5)cc[nH]c3=O)cc2F)CC1 [Example 390, N-(4-(4-ethylpiperazin-1-yl)-3,5-difluorophenyl)-4-((8-methyl-2,3-dihydro-1H-pyrido[2,3-b][1,4]oxazin-7-yl)amino)-2-oxo-1,2-dihydropyridine-3-carboxamide] | 7.00 to 8.00
13 | Cc1c(Nc2cc[nH]c(=O)c2C(=O)Nc2ccc(N3CCN(C4CC4)CC3)c(Cl)c2)cnc2c1NCCO2 [Example 391, N-(3-chloro-4-(4-cyclopropylpiperazin-1-yl)phenyl)-4-((8-methyl-2,3-dihydro-1H-pyrido[2,3-b][1,4]oxazin-7-yl)amino)-2-oxo-1,2-dihydropyridine-3-carboxamide] | ≥ 8.00
14 | COC1(CN(C)C)CCN(c2ccc(NC(=O)c3c(Nc4cnc5c(c4C)NCCO5)cc[nH]c3=O)cc2)CC1 [Example 392, N-(4-(4-((dimethylamino)methyl)-4-methoxypiperidin-1-yl)phenyl)-4-((8-methyl-2,3-dihydro-1H-pyrido[2,3-b][1,4]oxazin-7-yl)amino)-2-oxo-1,2-dihydropyridine-3-carboxamide] | ≥ 8.00
15 | Cc1c(Nc2cc[nH]c(=O)c2C(=O)Nc2ccc(N3CCN(C)CC3)c(CCO)c2)cnc2c1NCCO2 [Example 394, N-(3-(2-hydroxyethyl)-4-(4-methylpiperazin-1-yl)phenyl)-4-((8-methyl-2,3-dihydro-1H-pyrido[2,3-b][1,4]oxazin-7-yl)amino)-2-oxo-1,2-dihydropyridine-3-carboxamide] | 7.00 to 8.00
16 | Cc1c(Nc2cc[nH]c(=O)c2C(=O)Nc2ccc(N3CCC(N)C3)cc2)cnc2c1NCCO2 (centres unmarked) [Example 395, N-(4-(3-aminopyrrolidin-1-yl)phenyl)-4-((8-methyl-2,3-dihydro-1H-pyrido[2,3-b][1,4]oxazin-7-yl)amino)-2-oxo-1,2-dihydropyridine-3-carboxamide] | 7.00 to 8.00
17 | COc1ncc(C(C)(C)O)c2cc(NC(=O)c3c(Nc4cnc5c(c4C)NCCO5)cc[nH]c3=O)ccc12 [Example 396, N-(4-(2-Hydroxypropan-2-yl)-1-methoxyisoquinolin-6-yl)-4-((8-methyl-2,3-dihydro-1H-pyrido[2,3-b][1,4]oxazin-7-yl)amino)-2-oxo-1,2-dihydropyridine-3-carboxamide] | 6.00 to 7.00
18 | Cc1c(Nc2cc[nH]c(=O)c2C(=O)Nc2ccc(N3CCCC3CO)cc2)cnc2c1NCCO2 (centres unmarked) [Example 397, N-(4-(2-(hydroxymethyl)pyrrolidin-1-yl)phenyl)-4-((8-methyl-2,3-dihydro-1H-pyrido[2,3-b][1,4]oxazin-7-yl)amino)-2-oxo-1,2-dihydropyridine-3-carboxamide] | 7.00 to 8.00
19 | Cc1c(Nc2cc[nH]c(=O)c2C(=O)Nc2ccc(N3CCC(O)C3)cc2)cnc2c1NCCO2 (centres unmarked) [Example 398, N-(4-(3-hydroxypyrrolidin-1-yl)phenyl)-4-((8-methyl-2,3-dihydro-1H-pyrido[2,3-b][1,4]oxazin-7-yl)amino)-2-oxo-1,2-dihydropyridine-3-carboxamide] | 7.00 to 8.00
20 | CCCN1CCN(c2ccc(NC(=O)c3c(Nc4cnc5c(c4C)NCCO5)cc[nH]c3=O)cc2)CC1 [Example 399, 4-((8-methyl-2,3-dihydro-1H-pyrido[2,3-b][1,4]oxazin-7-yl)amino)-2-oxo-N-(4-(4-propylpiperazin-1-yl)phenyl)-1,2-dihydropyridine-3-carboxamide] | ≥ 8.00
21 | Cc1cc(NC(=O)c2c(Nc3cnc4c(c3C)NCCO4)cc[nH]c2=O)ccc1N1CCN(C2CC2)CC1 [Example 400, N-(4-(4-cyclopropylpiperazin-1-yl)-3-methylphenyl)-4-((8-methyl-2,3-dihydro-1H-pyrido[2,3-b][1,4]oxazin-7-yl)amino)-2-oxo-1,2-dihydropyridine-3-carboxamide] | 7.00 to 8.00
22 | CCOc1cc(NC(=O)c2c(Nc3cnc4c(c3C)NCCO4)cc[nH]c2=O)ccc1N1CCN(C2CC2)CC1 [Example 401, N-(4-(4-cyclopropylpiperazin-1-yl)-3-ethoxyphenyl)-4-((8-methyl-2,3-dihydro-1H-pyrido[2,3-b][1,4]oxazin-7-yl)amino)-2-oxo-1,2-dihydropyridine-3-carboxamide] | 7.00 to 8.00
23 | CC(=O)N1CCN(c2ccc(NC(=O)c3c(Nc4cnc5c(c4C)NCCO5)cc[nH]c3=O)cc2)CC1 [Example 402, N-(4-(4-acetylpiperazin-1-yl)phenyl)-4-((8-methyl-2,3-dihydro-1H-pyrido[2,3-b][1,4]oxazin-7-yl)amino)-2-oxo-1,2-dihydropyridine-3-carboxamide] | 7.00 to 8.00
24 | Cc1c(Nc2cc[nH]c(=O)c2C(=O)Nc2ccc(N3CCN(C(=O)CCO)CC3)cc2)cnc2c1NCCO2 [Example 403, N-(4-(4-(3-hydroxypropanoyl)piperazin-1-yl)phenyl)-4-((8-methyl-2,3-dihydro-1H-pyrido[2,3-b][1,4]oxazin-7-yl)amino)-2-oxo-1,2-dihydropyridine-3-carboxamide] | ≥ 8.00
25 | Cc1c(Nc2cc[nH]c(=O)c2C(=O)Nc2ccc(N3CCN(C(C)C)CC3)cc2)cnc2c1NCC(C)O2 (centres unmarked) [Example 404, 4-((3,8-dimethyl-2,3-dihydro-1H-pyrido[2,3-b][1,4]oxazin-7-yl)amino)-N-(4-(4-isopropylpiperazin-1-yl)phenyl)-2-oxo-1,2-dihydropyridine-3-carboxamide] | ≥ 8.00
26 | Cc1c(Nc2cc[nH]c(=O)c2C(=O)Nc2ccc(N3CCN(C(C)C)CC3)cc2)cnc2c1NCC(C)O2 (centres unmarked) [Example 405, 4-((3,8-dimethyl-2,3-dihydro-1H-pyrido[2,3-b][1,4]oxazin-7-yl)amino)-N-(4-(4-isopropylpiperazin-1-yl)phenyl)-2-oxo-1,2-dihydropyridine-3-carboxamide] | 7.00 to 8.00
